Measurements: ChEMBL document CHEMBL6109109, “Fatty acid binding protein 5 inhibitors as novel anticancer agents against metastatic castration-resistant prostate cancer” (Bioorg Med Chem, 2025)
Blank lines part the entries; values can stand above or below the compound they belong to.

Tests used:
[1] = Binding affinity to FABP5 (unknown origin); set-up: species or system Homo sapiens
[2] = Cytotoxicity against human WI-38 cells assessed as reduction in cell viability measured after 72 hrs by MTT assay; type: toxicity, cell-based
[3] = Cytotoxicity against mouse RCap cells assessed as reduction in cell viability measured after 72 hrs by MTT assay; type: functional, cell-based
PC-3 = assay: Cytotoxicity against human PC-3 cells assessed as reduction in cell viability measured after 72 hrs by MTT assay; type: functional, cell-based; conditions: PC-3, 72 h

Compound: COc1ccccc1[C@H]1[C@H](C(=O)O)[C@H](c2ccccc2OC)[C@H]1C(=O)Oc1cc(-c2ccc(C#N)cc2)ccc1CC#N
Ki [1]: 0.77 µM | IC50 at 72 h [2]: 25.4 µM | IC50 [3]: 12.4 µM | IC50 (PC-3): 6.39 µM

Compound: O=C(O)[C@H]1[C@H](c2ccccc2)[C@H](C(=O)Oc2cc(-c3ccc4c(c3)OCO4)ccc2Br)[C@H]1c1ccccc1
Ki [1]: 0.37 µM | IC50 at 72 h [2]: 24.8 µM | IC50 [3]: 14.8 µM | IC50 (PC-3): 9.36 µM

Compound: O=C(O)[C@H]1[C@H](c2ccccc2)[C@@H](C(=O)Oc2cc(-c3ccc4c(c3)OCCO4)cc3c2OCCO3)[C@H]1c1ccccc1
Ki [1]: 3.5 µM | IC50 (PC-3): 20.7 µM

Compound: COc1ccccc1[C@H]1[C@H](C(=O)O)[C@H](c2ccccc2OC)[C@H]1C(=O)OCCc1ccccc1-c1ccccc1
Ki [1]: 0.51 µM | IC50 at 72 h [2]: 51 µM | IC50 [3]: 14.2 µM | IC50 (PC-3): 11.9 µM

Ki [1]: 1.59 µM
Compound: COc1ccccc1[C@H]1[C@H](C(=O)O)[C@H](c2ccccc2OC)[C@H]1C(=O)Oc1ccccc1-c1ccc2c(c1)OCO2
IC50 (PC-3): 19.9 µM

Compound: CC(=O)N1CC=C(c2cccc(OC(=O)[C@H]3[C@@H](c4ccccc4)[C@@H](C(=O)O)[C@@H]3c3ccccc3)c2)CC1
Ki [1]: 28.9 µM | IC50 (PC-3): 67.4 µM

Compound: COc1ccccc1[C@H]1[C@H](C(=O)O)[C@H](c2ccccc2OC)[C@H]1C(=O)OC1Cc2ccccc2C1
IC50 (PC-3): 16.5 µM

Ki [1]: 1.26 µM
Compound: COc1ccccc1[C@H]1[C@H](C(=O)O)[C@H](c2ccccc2OC)[C@@H]1C(=O)Oc1cccc(-c2cccc3c2OCO3)c1
IC50 at 72 h [2]: 49 µM | IC50 [3]: 29 µM | IC50 (PC-3): 15.7 µM

Ki [1]: 0.74 µM
Compound: O=C1CCc2cc(-c3cccc(OC(=O)[C@H]4[C@@H](c5ccccc5)[C@H](C(=O)O)[C@@H]4c4ccccc4)c3)ccc2N1
IC50 at 72 h [2]: 42.8 µM | IC50 [3]: 12.6 µM | IC50 (PC-3): 11.4 µM

Ki [1]: 7.59 µM
Compound: O=C1CCc2cc(-c3cccc(OC(=O)[C@H]4[C@@H](c5ccccc5)[C@@H](C(=O)O)[C@@H]4c4ccccc4)c3)ccc2N1
IC50 at 72 h [2]: 77 µM | IC50 [3]: 15.6 µM | IC50 (PC-3): 13.1 µM

Ki [1]: 26.6 µM
Compound: COc1ccccc1[C@H]1[C@H](C(=O)O)[C@H](c2ccccc2OC)[C@@H]1C(=O)Oc1ccc(OC)c2ccccc12
IC50 (PC-3): 19.6 µM

Compound: COc1ccccc1[C@H]1[C@H](C(=O)O)[C@H](c2ccccc2OC)[C@H]1C(=O)Oc1cc(-c2ccccc2)ccc1CC#N
Ki [1]: 0.81 µM | IC50 at 72 h [2]: 24.4 µM | IC50 [3]: 8.31 µM | IC50 (PC-3): 7.31 µM

Compound: O=C(O)[C@H]1[C@H](c2ccccc2)[C@H](C(=O)OCc2cccc3ccccc23)[C@H]1c1ccccc1
Ki [1]: 2.64 µM | IC50 (PC-3): 19.1 µM

Ki [1]: 1.56 µM
Compound: COc1ccccc1[C@H]1[C@H](C(=O)O)[C@H](c2ccccc2OC)[C@H]1C(=O)Oc1cccc(-c2ccc3c(c2)OCCO3)c1
IC50 at 72 h [2]: 54.7 µM | IC50 [3]: 12.5 µM | IC50 (PC-3): 13 µM

Compound: O=C(O)[C@H]1[C@H](c2ccccc2)[C@@H](C(=O)Oc2cccc(-c3ccc4c(c3)OCCO4)c2)[C@H]1c1ccccc1
Ki [1]: 2.47 µM | IC50 at 72 h [2]: 31.8 µM | IC50 [3]: 13.6 µM | IC50 (PC-3): 9.5 µM

Compound: O=C(O)[C@H]1[C@H](c2ccccc2)[C@@H](C(=O)Oc2cc(-c3ccc4c(c3)OCO4)ccc2-c2cncnc2)[C@H]1c1ccccc1
IC50 at 72 h [2]: 31.5 µM | IC50 [3]: 2.92 µM | IC50 (PC-3): 5.88 µM

Compound: C#Cc1ccc(-c2ccc(C#N)cc2)cc1OC(=O)[C@H]1[C@@H](c2ccccc2OC)[C@H](C(=O)O)[C@@H]1c1ccccc1OC
Ki [1]: 1.02 µM | IC50 at 72 h [2]: > 200 µM | IC50 [3]: 17.4 µM | IC50 (PC-3): 8.89 µM

Compound: O=C(O)[C@@H]1[C@@H](c2ccccc2)[C@H](C(=O)OCc2ccccc2-c2ccccc2)[C@H]1c1ccccc1
Ki [1]: 1.65 µM | IC50 (PC-3): 22.1 µM

Ki [1]: 1.59 µM
Compound: COc1ccccc1[C@H]1[C@H](C(=O)O)[C@H](c2ccccc2OC)[C@H]1C(=O)Oc1ccccc1-c1ccccc1
IC50 (PC-3): 19.8 µM

Compound: O=C1Cc2ccc(-c3ccccc3OC(=O)[C@H]3[C@@H](c4ccccc4)[C@H](C(=O)O)[C@@H]3c3ccccc3)cc2N1
Ki [1]: 0.29 µM | IC50 (PC-3): 63.9 µM

Compound: O=C1Cc2cc(-c3cccc(OC(=O)[C@H]4[C@@H](c5ccccc5)[C@@H](C(=O)O)[C@@H]4c4ccccc4)c3)ccc2N1
Ki [1]: 2.21 µM | IC50 (PC-3): 20 µM

Ki [1]: 0.64 µM
Compound: COc1ccccc1[C@H]1[C@H](C(=O)O)[C@H](c2ccccc2OC)[C@H]1C(=O)Oc1cc(-c2ccc3c(c2)OCO3)ccc1-c1cncnc1
IC50 at 72 h [2]: 66.4 µM | IC50 [3]: 20.5 µM | IC50 (PC-3): 10.6 µM

Compound: COc1ccccc1[C@H]1[C@H](C(=O)O)[C@H](c2ccccc2OC)[C@H]1C(=O)Oc1cc(-c2ccc(C#N)cc2)ccc1-c1cncnc1
Ki [1]: 0.38 µM | IC50 (PC-3): 14.9 µM

Compound: O=C(O)[C@H]1[C@H](c2ccccc2)[C@H](C(=O)Oc2cc(-c3ccc4c(c3)OCO4)ccc2-c2cncnc2)[C@H]1c1ccccc1
IC50 at 72 h [2]: 95.5 µM | IC50 [3]: 30.2 µM | IC50 (PC-3): 12.5 µM

Compound: O=C(O)[C@H]1[C@H](c2ccccc2)[C@H](C(=O)OC2Cc3ccccc3C2)[C@H]1c1ccccc1
IC50 (PC-3): 37.6 µM

Compound: O=C(O)[C@H]1[C@H](c2ccccc2)[C@H](C(=O)Oc2cccc(-c3ccc(O)c(O)c3)c2)[C@H]1c1ccccc1
Ki [1]: 1.25 µM | IC50 (PC-3): 52.9 µM

Compound: O=C(O)[C@H]1[C@H](c2ccccc2)[C@H](C(=O)Oc2cccc(C3=CCOCC3)c2)[C@H]1c1ccccc1
Ki [1]: 1.75 µM | IC50 (PC-3): 52 µM

Ki [1]: 1.06 µM
Compound: COc1ccccc1[C@H]1[C@H](C(=O)O)[C@H](c2ccccc2OC)[C@H]1C(=O)Oc1cccc(-c2ccc3c(c2)NC(=O)C3)c1
IC50 (PC-3): 16.2 µM

Ki [1]: 0.64 µM
Compound: N#Cc1ccc(-c2ccc3c(c2)OCCO3)cc1OC(=O)[C@H]1[C@@H](c2ccccc2)[C@H](C(=O)O)[C@@H]1c1ccccc1
IC50 (PC-3): 15.1 µM

Compound: O=C(O)[C@H]1[C@H](c2ccccc2)[C@H](C(=O)Oc2ccc3cc(-c4cncnc4)ccc3c2)[C@H]1c1ccccc1
IC50 at 72 h [2]: 91.9 µM | IC50 [3]: 18.7 µM | IC50 (PC-3): 12.1 µM

Compound: N#Cc1ccc(-c2ccccc2OC(=O)[C@H]2[C@@H](c3ccccc3)[C@@H](C(=O)O)[C@@H]2c2ccccc2)cc1
Ki [1]: 1.39 µM | IC50 (PC-3): 20.5 µM

Compound: N#CCc1ccc(-c2ccc3c(c2)OCO3)cc1OC(=O)[C@H]1[C@@H](c2ccccc2)[C@H](C(=O)O)[C@@H]1c1ccccc1
Ki [1]: 0.64 µM | IC50 at 72 h [2]: 46.3 µM | IC50 (PC-3): 13 µM

Compound: COc1ccccc1[C@H]1[C@H](C(=O)O)[C@H](c2ccccc2OC)[C@H]1C(=O)Oc1cccc(-c2ccc(O)c(O)c2)c1
Ki [1]: 1.25 µM | IC50 (PC-3): 40.1 µM

Compound: COc1ccccc1[C@H]1[C@H](C(=O)O)[C@H](c2ccccc2OC)[C@@H]1C(=O)Oc1cccc2ccccc12
IC50 (PC-3): 25.5 µM

Compound: N#CCc1ccc(-c2ccc3c(c2)OCO3)cc1OC(=O)[C@H]1[C@@H](c2ccccc2)[C@@H](C(=O)O)[C@@H]1c1ccccc1
Ki [1]: 1.42 µM | IC50 at 72 h [2]: 66.3 µM | IC50 (PC-3): 12.8 µM

Compound: C#Cc1ccc(-c2ccc3c(c2)OCO3)cc1OC(=O)[C@H]1[C@@H](c2ccccc2OC)[C@@H](C(=O)O)[C@@H]1c1ccccc1OC
Ki [1]: 1.68 µM | IC50 (PC-3): 21.8 µM

Compound: O=C(O)[C@H]1[C@H](c2ccccc2)[C@H](C(=O)Oc2ccccc2-c2ccccc2)[C@H]1c1ccccc1
IC50 (PC-3): 16.2 µM

Ki [1]: 2.81 µM
Compound: COc1ccccc1[C@H]1[C@H](C(=O)O)[C@H](c2ccccc2OC)[C@H]1C(=O)Oc1ccccc1-c1ccc2c(c1)OCCO2
IC50 (PC-3): 17.8 µM

Compound: O=C(O)[C@@H]1[C@@H](c2ccccc2)[C@H](C(=O)Oc2cccc3ccccc23)[C@H]1c1ccccc1
IC50 (PC-3): 23.8 µM
